Assay results: ChEMBL document CHEMBL4680214, “Fluorinated derivatives of 2-phenyl-3-hydroxy-4(1H)-quinolinone as tubulin polymerization inhibitors” (Eur J Med Chem, 2020)
Activity calls are given as the source filed them. No cut-off for these calls is given here.

Key:
[1] = test system: CCRF-CEM; assay: Cell cycle arrest in human CCRF-CEM cells assessed as increase in accumulation at G2/M phase at 2 times IC50 measured after 6 to 12 hrs by propidium iodide staining based flow cytometry; type: functional; conditions: time 6-12 hrs
[2] = test system: HCT-116; assay: Cell cycle arrest in human HCT-116 cells assessed as accumulation at G0/G1 phase at IC50 measured after 24 hrs by propidium iodide staining based flow cytometry (reference value: 35.3%); type: functional
[3] = test system: HCT-116; assay: Cell cycle arrest in human HCT-116 cells assessed as BrdU incorporation at 5 times IC50 measured after 24 hrs by propidium iodide/immunostaining based flow cytometry (reference value: 48.6%); type: functional
[4] = test system: HCT-116; assay: Cytotoxicity against p53-deficient human HCT-116 cells incubated for 72 hrs by MTS assay; type: functional, cell-based; conditions: HCT-116, 72 h
[5] = species on record: Sus scrofa; assay: Inhibition of porcine brain tubulin polymerization assessed as Vmax of polymerization at 10 umol/L measured at 60 secs interval for 30 mins by turbidometric method; conditions: dose 10.0 µmol/L
[6] = test system: HCT-116; assay: Cell cycle arrest in human HCT-116 cells assessed as BrU incorporation at IC50 measured after 24 hrs by propidium iodide/immunostaining based flow cytometry (reference value: 54.0%); type: functional
[7] = test system: CCRF-CEM; assay: Cell cycle arrest in human CCRF-CEM cells assessed as phosphorylation of histone H3 at Ser10 at IC50 measured after 24 hrs by propidium iodide staining based flow cytometry (reference value: 2.0%); type: functional
[8] = test system: HCT-116; assay: Cell cycle arrest in human HCT-116 cells assessed as accumulation at G0/G1 phase at 5 times IC50 measured after 24 hrs by propidium iodide staining based flow cytometry (reference value: 35.3%); type: functional
[9] = test system: K562; assay: Cytotoxicity against human K562 cells incubated for 72 hrs by MTS assay; type: functional, cell-based; conditions: K562, 72 h
[10] = species on record: Sus scrofa; assay: Inhibition of porcine brain tubulin polymerization at 10 umol/L measured at 60 secs interval for 30 mins by turbidometric method; conditions: dose 10.0 µmol/L
[11] = test system: CCRF-CEM; assay: Cell cycle arrest in human CCRF-CEM cells assessed as accumulation at G2/M phase at IC50 measured after 24 hrs by propidium iodide staining based flow cytometry (reference value: 22.6%); type: functional
[12] = test system: HCT-116; assay: Cytotoxicity against human HCT-116 cells incubated for 72 hrs by MTS assay; type: functional, cell-based; conditions: HCT-116, 72 h
[13] = test system: BJ; assay: Cytotoxicity against human BJ cells incubated for 72 hrs by MTS assay; type: cell-based
[14] = molecular target: Tubulin (Homo sapiens) (UniProt P68371+Q9H4B7+P0DPH7+P68366+Q13509+Q71U36+P04350+Q3ZCM7+P07437+P68363+Q9BQE3+Q6PEY2+Q13885+Q9BVA1+Q9BUF5); assay: Induction of microtubule depolymerization in human HCT-116 cells assessed as appearance of abnormal mitotic spindle morphology at 5 times IC50 after 24 hrs by DAPI staining based immunofluorescence analysis; type: cell-based
[15] = test system: CCRF-CEM; assay: Cell cycle arrest in human CCRF-CEM cells assessed as BrU incorporation at 5 times IC50 measured after 24 hrs by propidium iodide/immunostaining based flow cytometry (reference value: 52.2%); type: functional
[16] = test system: CCRF-CEM; assay: Cell cycle arrest in human CCRF-CEM cells assessed as accumulation at sub-G1 phase at 5 times IC50 measured after 24 hrs by propidium iodide staining based flow cytometry (reference value: 2%); type: functional
[17] = test system: HCT-116; assay: Cell cycle arrest in human HCT-116 cells assessed as accumulation at sub-G1 phase at 5 times IC50 measured after 24 hrs by propidium iodide staining based flow cytometry (reference value: 1.6%); type: functional
[18] = test system: CCRF-CEM; assay: Cell cycle arrest in human CCRF-CEM cells assessed as BrdU incorporation at 5 times IC50 measured after 24 hrs by propidium iodide/immunostaining based flow cytometry (reference value: 60.0%); type: functional
[19] = test system: CCRF-CEM; assay: Cell cycle arrest in human CCRF-CEM cells assessed as polyploid cell population at 2 times IC50 measured after 36 hrs by propidium iodide staining based flow cytometry (reference value: 11.3%); type: functional
[20] = test system: CCRF-CEM; assay: Cell cycle arrest in human CCRF-CEM cells assessed as polyploid cell population at 2 times IC50 measured after 24 hrs by propidium iodide staining based flow cytometry (reference value: 11.3%); type: functional
[21] = test system: HCT-116; assay: Cell cycle arrest in human HCT-116 cells assessed as accumulation at S phase at 5 times IC50 measured after 24 hrs by propidium iodide staining based flow cytometry (reference value: 37.7%); type: functional
[22] = test system: CCRF-CEM; assay: Cytotoxicity against human CCRF-CEM cells incubated for 72 hrs by MTS assay; type: functional, cell-based
[23] = test system: HCT-116; assay: Cell cycle arrest in human HCT-116 cells assessed as BrU incorporation at 5 times IC50 measured after 24 hrs by propidium iodide/immunostaining based flow cytometry (reference value: 54.0%); type: functional
[24] = test system: CCRF-CEM; assay: Cell cycle arrest in human CCRF-CEM cells assessed as accumulation at sub-G1 phase at IC50 measured after 24 hrs by propidium iodide staining based flow cytometry (reference value: 2%); type: functional
[25] = test system: CCRF-CEM; assay: Cell cycle arrest in human CCRF-CEM cells assessed as accumulation at G0/G1 phase at 5 times IC50 measured after 24 hrs by propidium iodide staining based flow cytometry (reference value: 35.2%); type: functional
[26] = test system: K562; assay: Cytotoxicity against human paclitaxel-resistant K562 cells incubated for 72 hrs by MTS assay; type: functional, cell-based; conditions: K562, 72 h
[27] = test system: CCRF-CEM; assay: Cell cycle arrest in human CCRF-CEM cells assessed as accumulation at S phase at IC50 measured after 24 hrs by propidium iodide staining based flow cytometry (reference value: 42.2%); type: functional
[28] = test system: CCRF-CEM; assay: Cell cycle arrest in human CCRF-CEM cells assessed as increase in cyclin B1 expression at 2 times IC50 measured after 6 to 12 hrs by Western blot analysis; type: functional, cell-based; conditions: time 6-12 hrs
[29] = test system: HCT-116; assay: Cell cycle arrest in human HCT-116 cells assessed as accumulation at S phase at IC50 measured after 24 hrs by propidium iodide staining based flow cytometry (reference value: 37.7%); type: functional
[30] = test system: CCRF-CEM; assay: Cell cycle arrest in human CCRF-CEM cells assessed as polyploid cell population at 2 times IC50 measured after 6 hrs by propidium iodide staining based flow cytometry (reference value: 11.3%); type: functional
[31] = test system: CCRF-CEM; assay: Cell cycle arrest in human CCRF-CEM cells assessed as accumulation at G2/M phase at 5 times IC50 measured after 24 hrs by propidium iodide staining based flow cytometry (reference value: 22.6%); type: functional
[32] = test system: CCRF-CEM; assay: Cell cycle arrest in human CCRF-CEM cells assessed as polyploid cell population at 2 times IC50 measured after 12 hrs by propidium iodide staining based flow cytometry (reference value: 11.3%); type: functional
[33] = test system: HCT-116; assay: Cell cycle arrest in human HCT-116 cells assessed as BrdU incorporation at IC50 measured after 24 hrs by propidium iodide/immunostaining based flow cytometry (reference value: 48.6%); type: functional
[34] = test system: CCRF-CEM; assay: Cell cycle arrest in human CCRF-CEM cells assessed as accumulation at G0/G1 phase at IC50 measured after 24 hrs by propidium iodide staining based flow cytometry (reference value: 35.2%); type: functional
[35] = test system: CCRF-CEM; assay: Cell cycle arrest in human CCRF-CEM cells assessed as decrease in Bcl2 expression at 2 times IC50 measured after 24 hrs by Western blot analysis; type: functional, cell-based
[36] = test system: A549; assay: Cytotoxicity against human A549 cells incubated for 72 hrs by MTS assay; type: functional, cell-based; conditions: A549, 72 h
[37] = test system: CCRF-CEM; assay: Cell cycle arrest in human CCRF-CEM cells assessed as increase in Bax expression at 2 times IC50 measured after 24 hrs by Western blot analysis; type: functional, cell-based

SMILES: O=c1c(O)c(-c2ccccc2)[nH]c2cc(F)c(Sc3ccccc3)cc12
- Activity [1]: Active
- Activity [2]: 33.3%
- Activity [3]: 41.6%
- IC50 [4]: 4 µM
- Vmax (milli optical density/minute) [5]: 8.3
- Activity [6]: 65.4%
- Activity [7]: 9.4%
- Activity [8]: 2.7%
- IC50 [9]: 1.3 µM
- inhibition [10]: Active
- Activity [11]: 41.5%
- IC50 [12]: 1.3 µM
- IC50 [13]: > 50 µM
- Activity [14]: Active
- Activity [15]: 11.4%
- Activity [16]: 29.7%
- Activity [17]: 8.2%
- Activity [18]: 18.7%
- Activity [19]: 20.8%
- Activity [20]: 16.6%
- Activity [21]: 33.2%
- IC50 [22]: 3.3 µM
- Activity [23]: 63.9%
- Activity [24]: 5.8%
- Activity [25]: 58.2%
- IC50 [26]: 2.9 µM
- Activity [27]: 56.7%
- Activity [28]: Active
- Activity [29]: 33.5%
- Activity [30]: 10.5%
- Activity [31]: 20.2%
- Activity [32]: 12.4%
- Activity [33]: 42.1%
- Activity [34]: 1.8%
- Activity [35]: inactive
- IC50 [36]: 3.6 µM
- Activity [37]: Active
